Measurements: patent US9029329B2, “Caspase-14 activator peptides and compositions comprising said peptides” (ISP Investments Inc., priority 2010, dated 2015)
Blank lines part the entries; values can stand above or below the substance they belong to. No end group written: not given here.

What was measured:
NHK cells = assay: Comets test on UVB-irradiated NHK cells (DNA damage, Tail Moment); format: cell-based, human
Description: For this purpose, NHK cells were: • under condition a: cultured for 24 hours with the peptide compound of sequence SEQ ID NO: 3 at a concentration of 1% and 3%, and then irradiated with UVB radiation at 20 mJ/cm^2, in order to observe the protective effect of the peptide active ingredient on the cells; • under condition b: irradiated, in a first step, with UVB radiation at 20 mJ/cm^2, and then treated for 24 hours with said peptide compound at a concentration of 1% and 3%, in order to observe the repairing effect of the active ingredient on the cells.
The cells were then removed by trypsination from their carrier, and then centrifuged at 900 rpm for 5 minutes before being concentrated and counted.
A specific cell count (25,000 cells) was then incorporated into a 0.75% Low Melting agarose gel, and then deposited on a glass slide previously coated with 1% agarose. The slides were then immersed in a lysis solution for 1.5 hours at 4° C., and then in an alkaline solution for 20 minutes at 4° C. The cells were then lysed and the DNA denatured. The slides were immersed in an electrophoresis solution before applying an electric field (20 V-250 mA). The thus denatured DNA was subjected to migration within an agarose gel at 4° C. Applying a DNA fluorescent dye on the slides (2 μg/ml propidium iodide) allowed the DNA to be observed in the form of comets in those cases where it had been damaged.
Quantification software is used to determine the average Tail Moment applied to each condition being tested. This parameter provides information on the level of DNA damage: the higher it is, the greater the DNA damage.

pro/filaggrin = assay: Pro/filaggrin immunostaining in cultured human skin biopsies; format: cell-based; settings: peptide at 1% or 3%, 24 hours and 72 hours, dose-dependent and increases with time
Description: Samples of human skin were cultured at the air/liquid interface. Under a first condition, the samples were treated with the 1% peptide SEQ ID NO: 1 for 24 hours and 72 hours. Under a second condition, the samples were treated with the same peptide but at a concentration of 3% for 24 hours and 72 hours.
These skin samples were thereafter fixed with formaldehyde and then incorporated in paraffin. Sections 2 to 3 μm in size were then made. Immunostaining was carried out after unmasking specific sites by incubation in pepsin. Immunostaining was then performed by means of a filaggrin-specific mouse monoclonal antibody (Tebu Santa Cruz), followed by a secondary antibody, coupled with a fluorescent marker. The skin sections were then examined using an epifluorescence microscope (Nikon® Eclipse E600 microscope).

[1] = tested on: cyclobutane-pyrimidine dimers; assay: CPD immunostaining on human skin biopsies subjected to UVB radiation; format: cell-based; settings: UVB 200 mJ/cm^2, then topical 1% or 3% solution for 24 hours; repair dose-dependent
Description: Human skin biopsies were cultured at the air/liquid interface. These biopsies were subjected to UVB radiation at 200 mJ/cm^2. After irradiation, under a first condition, a 1%-solution of peptide SEQ ID NO: 2 was applied topically to the biopsies for 24 hours. Under a second condition, a 3%-solution of peptide SEQ ID NO: 2 was applied topically for 24 hours. Control conditions are achieved by the topical application of a PBS solution after irradiation.
For staining the cyclobutane-pyrimidine dimers, the skin biopsies were incorporated into paraffin and histological 3 μm thick sections were made. The slides were deparaffinized, hydrated and subjected to immunostaining with an antibody directed against cyclobutane-pyrimidine dimers (MBL D194-1, mouse monoclonal), followed by a suitable secondary antibody (Invitrogen™ A21202), coupled with a fluorescent marker. The skin sections were then examined with an epifluorescence microscope (Nikon® Eclipse E 80i microscope).

caspase-14 [2] = assay: Caspase-14 expression by Western Blot in NHKs with or without caspase-14 siRNA; format: cell-based, human
Description: NHK cells were cultured in 6-well plates up to a confluence of 60% and then treated with 20 μL of 1%-peptide SEQ ID NO: 2. Then, 100 μL of a previously prepared mixture containing the siRNA of caspase-14 and the transfecting agent were carefully added dropwise, on a well per well basis. The cell culture plate was incubated at 37° C. and at 5% CO2 for 72 hours. The culture medium was renewed every 2 days. Four conditions were implemented: • condition 1: control containing no siRNA nor peptide active ingredient • condition 2: siRNA-transfected cells, containing no peptide active ingredient • condition 3: cells that are not transfected but treated with the peptide active ingredient • condition 4: cells transfected with siRNA, and treated with the peptide active ingredient
The quantification of caspase-14 expression is observed using the conventional immunoblotting technique (Western Blot) carried out by means of an anti-caspase-14 antibody and according to a conventional protocol. To analyze the compensation brought about by the peptide in the NHKs transfected with siRNA, a comparison was performed with respect to non-treated NHKs whose gene had not been extinguished by siRNA.

caspase-14 [3] = assay: Caspase-14 expression in normal human keratinocytes by immunofluorescence; format: cell-based; settings: NHKs, peptide at 1% or 3%, 24 hours; dose-dependent, greater at 3% than at 1%
Description: Cultured normal human keratinocytes, NHKs, were treated with 1% or 3%-peptide SEQ ID NO: 2 for 24 hours. The cells were then washed, fixed with 3.7%-paraformaldehyde using 0.1%-triton in the presence of bovine serum albumin (BSA) (diluted to 1/100th). The cells were incubated in the presence of a caspase-14-specific mouse monoclonal antibody (BD Biosciences), and then of a secondary antibody, coupled with a fluorescent marker. The cells were then examined by means of an epifluorescence microscope (Nikon® Eclipse E600 microscope).

Substance: Asn-Arg-Ile-Gln-Ala-Cys-Arg-Gly-NH2 (NRIQACRG-NH2) [peptide SEQ ID NO: 3]
- Tail Moment decrease (NHK cells; condition a: 24 hours pretreatment at 1%, then UVB 20 mJ/cm^2, vs UVB control): 57%
- Tail Moment decrease (NHK cells; condition a: 24 hours pretreatment at 3%, then UVB 20 mJ/cm^2, vs UVB control): 57%
- Tail Moment decrease (NHK cells; condition b: UVB 20 mJ/cm^2, then 24 hours treatment at 1%): 31%
- Tail Moment decrease (NHK cells; condition b: UVB 20 mJ/cm^2, then 24 hours treatment at 3%): 58%

Substance: Asp-Pro-Ile-Gln-Ala-Cys-Arg-Gly-NH2 (DPIQACRG-NH2) [peptide SEQ ID NO: 1]
- pro/filaggrin staining (pro/filaggrin): increase

- light intensity (caspase-14 fluorescence) with respect to the control conditions (caspase-14 [3]): increase
Substance: Ile-Gln-Ala-Cys-Arg-Gly-NH2 (IQACRG-NH2) [peptide SEQ ID NO: 2]
- CPD fluorescence compared with the control conditions with UVB radiation [1]: much weaker fluorescence
- increase in caspase-14 protein expression with respect to the control (caspase-14 [2]; non-transfected NHKs, 1% peptide, 72 hours (condition 3 vs condition 1)): 20.9%
- decrease in caspase-14 protein expression with respect to the control conditions (caspase-14 [2]; siRNA-transfected NHKs treated with 1% peptide, 72 hours (condition 4 vs condition 1)): 14%
